Assay results from patent US10167288B2, “Substituted pyrazolylpyrazole derivative and use of same as herbicide” (KYOYU AGRI CO., LTD., priority 2015, dated 2019).

Key:
Format in all cases: in vivo
Galinsoga parviflora = assay: Weed foliar treatment test (Test Example 4); conditions: 10 g a.i./10 a; foliar spray at 4.0 to 5.0 leaf stage of Digitaria ciliaris (plant height 10 cm to 15 cm); 20 days, 25° C.
Protocol: (§1) 4. Weed Foliar Treatment Test
(§2) Field soil was filled into a 1/4500 are pot followed by seeding with Digitaria ciliaris and Galinsoga parviflora, covering with soil and cultivating in a glass greenhouse at an average atmospheric temperature of 25° C.
(§3) Wettable powders of Target Compound (I) shown in Table 1 prepared in compliance with the preparation examples were diluted with water to the prescribed amount of chemical and uniformly sprayed onto the weeds using 100 liters of sprayed water per 10 are when Digitaria ciliaris had grown to the 4.0 to 5.0 leaf stage (plant height: 10 cm to 15 cm).
(§4) After treating for 20 days in a glass greenhouse at an average atmospheric temperature of 25° C., the herbicidal efficacy thereof was investigated.
(§5) Evaluation of herbicidal efficacy was carried out in the same manner as the above-mentioned Test Example 1.

Digitaria ciliaris [1] = assay: Weed foliar treatment test (Test Example 4); conditions: 10 g a.i./10 a; foliar spray at 4.0 to 5.0 leaf stage of Digitaria ciliaris (plant height 10 cm to 15 cm); 20 days, 25° C.
Protocol: as §1, §2, §3, §4, §5

Amaranthus retroflexus [2] = assay: Farming soil treatment test; conditions: soil surface spray prior to weed growth, 30 days, 30° C.
Protocol: (§6) 2. Farming Soil Treatment Test Field soil was filled into a 1/6000 are pot followed by seeding with Digitaria ciliaris Chenopodium album and Amaranthus retroflexus and covering with soil. Wettable powders of compounds of formula (I) shown in Table 1 prepared in compliance with the preparation examples were diluted with water to the prescribed amount of chemical and uniformly sprayed onto each soil surface layer using 100 liters of sprayed water per 10 are prior to weed growth following seeding. After treating for 30 days in a glass greenhouse at an average atmospheric temperature of 30° C., the herbicidal efficacy thereof was investigated. Evaluation of herbicidal efficacy was carried out in the same manner as the above-mentioned Test Example 1.

Chenopodium album [3] = assay: Farming soil treatment test; conditions: soil surface spray prior to weed growth, 30 days, 30° C.
Protocol: as §6

Digitaria ciliaris [4] = assay: Farming soil treatment test; conditions: soil surface spray prior to weed growth, 30 days, 30° C.
Protocol: as §6

Scirpus juncoides = assay: Paddy herbicidal activity test; conditions: dropped into paddy water at 3.5 leaf stage of Echinochloa crus-galli, 30 days, 30° C., vs untreated group
Protocol: (§7) 1. Paddy Herbicidal Activity Test
(§8) Rice paddy soil was filled into a 1/10000 are pot followed by the addition of suitable amounts of water and chemical fertilizer, kneading, seeding with Echinochloa crus-galli, Monochoria vaginalis and Scirpus juncoides and maintaining in an irrigated state at a water depth of 3 cm.
(§9) Wettable powders of Target Compound (I) shown in Table 1 prepared in compliance with the preparation examples were diluted with a suitable amount of water, rice plants in the 2.0 leaf stage were transplanted during 3.5 leaf stage of Echinochloa crus-galli, and treated by dropping in chemical in the prescribed amount per 10 are using a pipette.
(§10) After treating for 30 days in a glass greenhouse at an average atmospheric temperature of 30° C., the herbicidal efficacy thereof was investigated.
(§11) Evaluation of herbicidal efficacy was carried out by comparing growth inhibition rate (%) with an untreated group, while evaluation of phytotoxicity was carried out by comparing growth inhibition rate (%) with the state of a complete eradication group, and were evaluated at 11 levels indicated below.

Monochoria vaginalis = assay: Paddy herbicidal activity test; conditions: dropped into paddy water at 3.5 leaf stage of Echinochloa crus-galli, 30 days, 30° C., vs untreated group
Protocol: as §7, §8, §9, §10, §11

Echinochloa crus-galli = assay: Paddy herbicidal activity test; conditions: dropped into paddy water at 3.5 leaf stage of Echinochloa crus-galli, 30 days, 30° C., vs untreated group
Protocol: as §7, §8, §9, §10, §11

Oryza sativa = assay: Paddy herbicidal activity test, phytotoxicity to transplanted rice; conditions: rice transplanted in the 2.0 leaf stage, 30 days, 30° C., vs complete eradication group
Protocol: as §7, §8, §9, §10, §11

Amaranthus retroflexus [5] = assay: Weed foliar treatment test (Test Example 3); conditions: foliar spray at 1.0 to 2.0 leaf stage of Digitaria ciliaris, 3 weeks, 25° C.
Protocol: (§12) 3. Weed Foliar Treatment Test
(§13) Soil was filled into a 1/6000 are pot followed by seeding with Digitaria ciliaris, Chenopodium album and Amaranthus retroflexus, covering with soil, and cultivating in a glass greenhouse at an average atmospheric temperature of 25° C.
as §3, with “150” for “100”, “1.0” for “4.0”, “2.0” for “5.0”, “stage.” for “stage (plant height: 10 cm to 15 cm).”
(§14) After treating for 3 weeks in a glass greenhouse at an average atmospheric temperature of 25° C., the herbicidal efficacy thereof was investigated.
as §5

Chenopodium album [6] = assay: Weed foliar treatment test (Test Example 3); conditions: foliar spray at 1.0 to 2.0 leaf stage of Digitaria ciliaris, 3 weeks, 25° C.
Protocol: as §12, §13
as §3, with “150” for “100”, “1.0” for “4.0”, “2.0” for “5.0”, “stage.” for “stage (plant height: 10 cm to 15 cm).”
as §14, §5

Digitaria ciliaris [7] = assay: Weed foliar treatment test (Test Example 3); conditions: foliar spray at 1.0 to 2.0 leaf stage of Digitaria ciliaris, 3 weeks, 25° C.
Protocol: as §12, §13
as §3, with “150” for “100”, “1.0” for “4.0”, “2.0” for “5.0”, “stage.” for “stage (plant height: 10 cm to 15 cm).”
as §14, §5

## CCSC(=O)Nc1c(C#N)cnn1-c1nn2c(c1Cl)CCCC2 [Compound 11]
Galinsoga parviflora
  herbicidal efficacy, Galinsoga parviflora: 10 (100%)
Digitaria ciliaris [1]
  herbicidal efficacy, Digitaria ciliaris: 10 (100%)

## COC(=O)Nc1c(C#N)cnn1-c1nn2c(c1Cl)CCC2 [Compound 3]
Amaranthus retroflexus [2]; 5 g a.i./10 a
  herbicidal efficacy, Amaranthus retroflexus: 10 (100%)
Amaranthus retroflexus [2]; 10 g a.i./10 a
  herbicidal efficacy, Amaranthus retroflexus: 10 (100%)
Chenopodium album [3]; 5 g a.i./10 a
  herbicidal efficacy, Chenopodium album: 9 (90% to less than 100%)
Chenopodium album [3]; 10 g a.i./10 a
  herbicidal efficacy, Chenopodium album: 10 (100%)
Digitaria ciliaris [4]; 5 g a.i./10 a
  herbicidal efficacy, Digitaria ciliaris: 10 (100%)
Digitaria ciliaris [4]; 10 g a.i./10 a
  herbicidal efficacy, Digitaria ciliaris: 10 (100%)
Scirpus juncoides; 1 g a.i./10 a
  herbicidal efficacy, Scirpus juncoides: 9 (90% to less than 100%)
Scirpus juncoides; 5 g a.i./10 a
  herbicidal efficacy, Scirpus juncoides: 10 (100%)
Monochoria vaginalis; 1 g a.i./10 a
  herbicidal efficacy, Monochoria vaginalis: 10 (100%)
Monochoria vaginalis; 5 g a.i./10 a
  herbicidal efficacy, Monochoria vaginalis: 10 (100%)
Echinochloa crus-galli; 1 g a.i./10 a
  herbicidal efficacy, Echinochloa crus-galli: 10 (100%)
Echinochloa crus-galli; 5 g a.i./10 a
  herbicidal efficacy, Echinochloa crus-galli: 10 (100%)
Galinsoga parviflora
  herbicidal efficacy, Galinsoga parviflora: 10 (100%)
Digitaria ciliaris [1]
  herbicidal efficacy, Digitaria ciliaris: 10 (100%)
Oryza sativa; 1 g a.i./10 a
  phytotoxicity, Oryza sativa: 1 (10% to less than 20%)
Oryza sativa; 5 g a.i./10 a
  phytotoxicity, Oryza sativa: 1 (10% to less than 20%)
Amaranthus retroflexus [5]; 5 g a.i./10 a
  herbicidal efficacy, Amaranthus retroflexus: 10 (100%)
Amaranthus retroflexus [5]; 10 g a.i./10 a
  herbicidal efficacy, Amaranthus retroflexus: 10 (100%)
Chenopodium album [6]; 5 g a.i./10 a
  herbicidal efficacy, Chenopodium album: 10 (100%)
Chenopodium album [6]; 10 g a.i./10 a
  herbicidal efficacy, Chenopodium album: 10 (100%)
Digitaria ciliaris [7]; 5 g a.i./10 a
  herbicidal efficacy, Digitaria ciliaris: 10 (100%)
Digitaria ciliaris [7]; 10 g a.i./10 a
  herbicidal efficacy, Digitaria ciliaris: 10 (100%)

## CCOC(=O)Nc1c([N+](=O)[O-])cnn1-c1nn2c(c1Cl)CCCC2 [Control agent 2.28, reference compound]
Amaranthus retroflexus [2]; 5 g a.i./10 a
  herbicidal efficacy, Amaranthus retroflexus: 3 (30% to less than 40%)
Amaranthus retroflexus [2]; 10 g a.i./10 a
  herbicidal efficacy, Amaranthus retroflexus: 5 (50% to less than 60%)
Chenopodium album [3]; 5 g a.i./10 a
  herbicidal efficacy, Chenopodium album: 4 (40% to less than 50%)
Chenopodium album [3]; 10 g a.i./10 a
  herbicidal efficacy, Chenopodium album: 5 (50% to less than 60%)
Digitaria ciliaris [4]; 5 g a.i./10 a
  herbicidal efficacy, Digitaria ciliaris: 1 (10% to less than 20%)
Digitaria ciliaris [4]; 10 g a.i./10 a
  herbicidal efficacy, Digitaria ciliaris: 2 (20% to less than 30%)
Scirpus juncoides; 1 g a.i./10 a
  herbicidal efficacy, Scirpus juncoides: 1 (10% to less than 20%)
Scirpus juncoides; 5 g a.i./10 a
  herbicidal efficacy, Scirpus juncoides: 2 (20% to less than 30%)
Monochoria vaginalis; 1 g a.i./10 a
  herbicidal efficacy, Monochoria vaginalis: 3 (30% to less than 40%)
Monochoria vaginalis; 5 g a.i./10 a
  herbicidal efficacy, Monochoria vaginalis: 4 (40% to less than 50%)
Echinochloa crus-galli; 1 g a.i./10 a
  herbicidal efficacy, Echinochloa crus-galli: 1 (10% to less than 20%)
Echinochloa crus-galli; 5 g a.i./10 a
  herbicidal efficacy, Echinochloa crus-galli: 2 (20% to less than 30%)
Galinsoga parviflora
  herbicidal efficacy, Galinsoga parviflora: 2 (20% to less than 30%)
Digitaria ciliaris [1]
  herbicidal efficacy, Digitaria ciliaris: 1 (10% to less than 20%)
Oryza sativa; 1 g a.i./10 a
  phytotoxicity, Oryza sativa: 0 (0% to less than 10% (growth inhibition rate))
Oryza sativa; 5 g a.i./10 a
  phytotoxicity, Oryza sativa: 1 (10% to less than 20%)
Amaranthus retroflexus [5]; 5 g a.i./10 a
  herbicidal efficacy, Amaranthus retroflexus: 3 (30% to less than 40%)
Amaranthus retroflexus [5]; 10 g a.i./10 a
  herbicidal efficacy, Amaranthus retroflexus: 6 (60% to less than 70%)
Chenopodium album [6]; 5 g a.i./10 a
  herbicidal efficacy, Chenopodium album: 6 (60% to less than 70%)
Chenopodium album [6]; 10 g a.i./10 a
  herbicidal efficacy, Chenopodium album: 7 (70% to less than 80%)
Digitaria ciliaris [7]; 5 g a.i./10 a
  herbicidal efficacy, Digitaria ciliaris: 2 (20% to less than 30%)
Digitaria ciliaris [7]; 10 g a.i./10 a
  herbicidal efficacy, Digitaria ciliaris: 4 (40% to less than 50%)
